Measurements reported in article PMC11505594, “Design, Synthesis, and Anti-Melanogenic Activity of 2-Mercaptomethylbenzo[d]imidazole Derivatives Serving as Tyrosinase Inhibitors: An In Silico, In Vitro, and In Vivo Exploration” (Antioxidants, 2024).
Entries after “also recorded” stand apart in the source; their conditions may differ. Where two headings read alike, the source gives them in different places.

How the values were obtained:
zebrafish larvae = assay: Melanogenesis (depigmentation) assay using zebrafish embryos; assay type: in vivo; settings: for depigmentation of zebrafish larvae at 0.1 mM / depigmentation of zebrafish larvae at 0.03 mM: compared with kojic acid 20 mM; for pigmentation area of zebrafish larvae (CS analyzer, dorsal and lateral views): derivatives 0.03 and 0.1 mM, kojic acid 20 mM
Protocol: To assess depigmentation in vivo, wild-type zebrafish (Danio rerio) embryos were acquired free of charge from the Zebrafish Center for Disease Modeling (ZCDM) located at Chungnam National University in Daejeon, Republic of Korea. The zebrafish were raised in tanks maintained at 28 °C in the ZCDM. The tanks were oxygenated, and the tank lights were turned off for 10 h and on for 14 h. The zebrafish embryos used for in vivo depigmentation experiments were obtained through natural mating. The E3 solution for zebrafish embryos was prepared by dissolving 19.9 mg magnesium sulfate, 6.4 mg potassium chloride, 18.3 mg calcium chloride, and 146.1 mg sodium chloride in 500 mL distilled water. E3-MB (methylene blue) solution was prepared by adding MB to the E3 solution to create a 0.001% MB solution. The acquired zebrafish embryos were transferred to a culture dish containing the E3-MB solution. The culture dish was incubated at 28 °C until zebrafish embryos were used. Since zebrafish embryos are sensitive and can be easily killed by the chorion removal process 20 h post-fertilization (20 hpf), the chorion was removed at 24 hpf through treatment with pronase (Sigma-Aldrich, St. Louis, MO, USA). Five dechorionated zebrafish embryos were transferred to each well of 48-well microplates containing 250 μL E3 solution. […] Zebrafish larvae were anesthetized with tricaine at 76 hpf and placed on a 1% methylcellulose block to determine the degree of zebrafish larva depigmentation. Dorsal and lateral images of the zebrafish larvae were acquired using an SMZ745T microscope (Nikon, Tokyo, Japan). The pigmented areas of the dorsal and lateral images were obtained using CS analyzer 3.0 image analysis software (ATTO, Tokyo, Japan). Each assay (n = 7) was independently performed two times.

mushroom TYR [1] = molecular target: T1, mushroom TYR (Agaricus bisporus, UniProt C7FF04); assay: Mushroom TYR activity assay with and without CuSO4; assay type: biochemical; settings: 20 μM derivative, L-tyrosine
Protocol: To determine whether copper(II) ions influence the TYR-inhibitory activity of 2-MMBI derivatives, the effects of these derivatives on mushroom TYR activity were measured with and without CuSO4. Briefly, mushroom TYR aqueous solution (20 μL, 1 unit/μL) was mixed with 2-MMBI derivatives (1, 3, and 8–10) (10 μL, final concentration: 20 μM) and with the substrate solution (170 μL), comprising 17.2 mM phosphate buffer (pH 6.5) and 345 μM L-tyrosine, in the presence or absence of CuSO4 (50 μL, final concentration: 50 μM) in each well of a 96-well plate. […] Each assay was carried out independently in triplicate.

mushroom TYR [2] = molecular target: T1, mushroom TYR; assay: Kinetic studies on mushroom TYR (Lineweaver–Burk and Dixon plots); assay type: biochemical; settings: L-dopa as substrate
Protocol: Kinetic experiments were performed to obtain Lineweaver–Burk plots for the analysis of mushroom TYR kinetics. Mushroom TYR solution (20 μL, 150 units/mL) was added to each well of a 96-well microplate containing 2-MMBI derivatives (10 μL; 0, 7.5, 15, and 30 μM for 1; 0, 5, 10, and 20 μM for 3 and 8; and 0, 12.5, 25, and 50 μM for 9) and a substrate solution (170 μL) composed of sodium phosphate buffer (17.2 mM; pH 6.5) and L-dopa (various concentrations: 0.5, 1, 2, 4, 8, and 16 mM). […] Lineweaver–Burk plots for each 2-MMBI derivative were obtained by plotting the value of 1/[substrate] against the value of (min/ΔOD475). Lineweaver–Burk plots were transformed into corresponding Dixon plots by plotting the value of (min/ΔOD475) against the value of the 2-MMBI derivative concentration.

B16F10 cells = assay: Melanin content measurement assay in B16F10 cells; assay type: cell-based, murine; settings: α-MSH 1 μM plus IBMX 200 μM, 72 h; for effect on B16F10 cellular melanin production at three concentrations: 2, 5, and 10 μM
Protocol: A 6-well plate containing 5 × 10^3 B16F10 cells per well was incubated at 37 °C and 5% CO2 for 1 day. […] After 1 h, 1 μM α-MSH and 200 μM IBMX were added to each well, and the plate was subsequently incubated at 37 °C and 5% CO2 for 72 h. The cells were exposed to […] 1N-NaOH solution and cultured at 60 °C for 1 h after washing with PBS. The lysates were transferred to each well of a 96-well plate, and the optical density at 405 nm was recorded using a VersaMax™ reader. […] Each assay was independently performed three times.

[3] = Reactive oxygen species removal activity assay (SIN-1, DCFH); settings: test samples 40 μM; SIN-1 10 μM
Protocol: To assess reactive oxygen species (ROS) removal activity, a DCFH solution was prepared by mixing 50 μL DCFH-DA (1.25 mM), 50 μL esterase (0.6 unit/μL), and 4.9 mL phosphate buffer (50 mM) and maintained in the dark for 30 min. The SIN-1 solution (10 μL) was added to each well of a 96-black well that contained the test sample (10 μL; 2-MMBI derivatives 1–10 and Trolox [positive material]) and phosphate buffer (180 μL). 2-MMBI derivatives, Trolox, and SIN-1 were exposed at final concentrations of 40, 40, and 10 μM, respectively. The prepared DCFH solution (50 μL) was added to each well after 10 min. The fluorescence intensity of 2′,7′-dichlorofluorescein in the wells was measured at 535 nm using a microplate reader (Berthold Advances GmbH & Co., Bad Wildbad, Germany) with an excitation wavelength of 485 nm. Each experiment was conducted independently four times.

B16F10 cellular TYR = molecular target: T2, B16F10 cellular TYR (Mus musculus, UniProt P11344); assay: TYR activity assay in B16F10 cells; assay type: cell-based, murine; settings: 2, 5, and 10 μM; α-MSH 1 μM plus IBMX 200 μM; 72 h
T2 construct: The in situ cellular TYR activities of the 2-MMBI derivatives were investigated using B16F10 cells; endogenous in cells; host or cells: B16F10 murine melanoma cells stimulated with alpha-MSH and IBMX
T2 sequence (P11344 19-533): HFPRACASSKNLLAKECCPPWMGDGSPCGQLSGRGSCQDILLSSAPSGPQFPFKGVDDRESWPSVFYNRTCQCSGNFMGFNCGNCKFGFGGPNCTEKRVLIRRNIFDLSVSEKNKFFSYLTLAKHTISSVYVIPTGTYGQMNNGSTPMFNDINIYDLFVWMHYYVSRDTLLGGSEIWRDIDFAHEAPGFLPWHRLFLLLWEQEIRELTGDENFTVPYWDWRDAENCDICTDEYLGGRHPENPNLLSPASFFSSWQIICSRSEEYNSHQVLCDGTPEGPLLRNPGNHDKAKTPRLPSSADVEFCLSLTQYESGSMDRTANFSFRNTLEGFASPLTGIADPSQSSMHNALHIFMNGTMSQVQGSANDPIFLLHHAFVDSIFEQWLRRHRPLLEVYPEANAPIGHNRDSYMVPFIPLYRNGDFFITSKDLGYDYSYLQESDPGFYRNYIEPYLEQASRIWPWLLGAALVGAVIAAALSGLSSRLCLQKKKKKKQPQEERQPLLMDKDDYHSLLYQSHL
Protocol: A 6-well plate containing 5 × 10^3 B16F10 cells per well was incubated (37 °C and 5% CO2) for 1 day. […] Stimulators (1 μM α-MSH and 200 μM IBMX) were added after 1 h, and the plate was incubated (37 °C and 5% CO2) for 72 h. After washing with PBS, 100 μL lysis buffer consisting of 1% Triton X-100, 1 mM phenylmethylsulfonyl fluoride, and 50 mM sodium phosphate buffer (pH 6.5) in a volume ratio of 1:1:18 was added to each well. Following an incubation period of 30 min at −80 °C, the cell lysates were centrifuged at 12,000× g for 10 min at 4 °C to obtain the supernatants. […] Each assay was independently performed three times.

B16F10 cell TYR = molecular target: T3, B16F10 cell TYR (Mus musculus, UniProt P11344); assay: In situ B16F10 cellular TYR activity assay (L-dopa staining); assay type: cell-based, murine; settings: α-MSH plus IBMX 72 h; for in situ B16F10 cell TYR activity (cell staining), concentration series: 2, 5, and 10 μM
T3 construct: The in situ cellular TYR activities of the 2-MMBI derivatives were investigated using B16F10 cells; endogenous in cells; host or cells: B16F10 murine melanoma cells stimulated with alpha-MSH and IBMX
T3 sequence (P11344 19-533): T2 sequence (P11344 19-533)
Protocol: B16F10 cells (2 × 10^3/well) were inoculated in each well of a 24-well microplate and cultured for 1 day in an incubator (37 °C and 5% CO2). […] Subsequently, stimulators (α-MSH [1 μM] and IBMX [200 μM]) were added to each well. […] Stained photographs were captured using a camera attached to a microscope (Motic, Hong Kong, China). Each assay was independently performed two times.

[4] = CuSO4 50 μM added externally, read-out: inhibition of mushroom TYR activity with CuSO4
[5] = no CuSO4 added externally, read-out: inhibition of mushroom TYR activity without CuSO4
[6] = 0.03 and 0.1 mM, 48 h exposure from 28 hpf

T1 sequence (C7FF04 2-392): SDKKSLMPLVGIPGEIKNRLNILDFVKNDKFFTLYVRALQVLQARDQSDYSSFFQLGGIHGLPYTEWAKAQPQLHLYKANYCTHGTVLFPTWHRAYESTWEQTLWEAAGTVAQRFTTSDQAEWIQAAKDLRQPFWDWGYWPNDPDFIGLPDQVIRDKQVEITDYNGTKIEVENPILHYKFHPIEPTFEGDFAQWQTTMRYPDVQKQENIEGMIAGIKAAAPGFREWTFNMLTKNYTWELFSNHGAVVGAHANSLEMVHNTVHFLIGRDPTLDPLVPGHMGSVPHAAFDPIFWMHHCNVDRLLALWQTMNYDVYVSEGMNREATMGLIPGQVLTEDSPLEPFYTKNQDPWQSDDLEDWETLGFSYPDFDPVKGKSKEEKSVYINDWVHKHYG

inhibition at 20 µM (mushroom TYR [1]; [4]) | inhibition at 20 µM (mushroom TYR [1]; [5]) | inhibition mechanism (mushroom TYR [2]) | Structure (SMILES) | effect on B16F10 cellular melanin production at 10 μM (B16F10 cells) | effect on B16F10 cellular TYR activity (B16F10 cellular TYR) | effect on B16F10 cellular melanin production at three concentrations (B16F10 cells) | other results
76% | 86 to 89% | competitive TYR inhibitors | SCc1nc2ccccc2[nH]1 [Derivative 1, (1H-Benzo[d]imidazol-2-yl)methanethiol] | relatively low melanin inhibitory effect | – | – | depigmentation of zebrafish larvae at 0.1 mM (zebrafish larvae; 0.1 mM, 48 h): much more potent inhibition of melanin production in zebrafish larvae than kojic acid; pigmentation area of zebrafish larvae (CS analyzer, dorsal and lateral views) (zebrafish larvae): reduced the pigmentation area more strongly than kojic acid in a concentration-dependent manner
– | – | – | SCc1nc2cc(Cl)ccc2[nH]1 [Derivative 2, (5-Chloro-1H-benzo[d]imidazol-2-yl)methanethiol] | – | – | – | depigmentation of zebrafish larvae at 0.03 mM (zebrafish larvae; 48 h): much stronger depigmentation efficacy than kojic acid; zebrafish larvae death at 0.1 mM (zebrafish larvae; 0.1 mM, 48 h exposure from 28 hpf): died; ROS scavenging activity [3]: stronger ROS scavenging efficacy than the other derivatives
34% | 86 to 89% | competitive TYR inhibitors | COc1ccc2[nH]c(CS)nc2c1 [Derivative 3, (5-Methoxy-1H-benzo[d]imidazol-2-yl)methanethiol] | inhibited melanin production more strongly than kojic acid | significantly reduced stimulator-enhanced cellular TYR activity in a dose-dependent manner | significantly decreased the melanin levels increased by the stimulators in a concentration-dependent manner | depigmentation of zebrafish larvae at 0.03 mM (zebrafish larvae; 48 h): much stronger depigmentation efficacy than kojic acid; depigmentation of zebrafish larvae at 0.1 mM (zebrafish larvae; 0.1 mM, 48 h): much more potent inhibition of melanin production in zebrafish larvae than kojic acid; pigmentation area of zebrafish larvae (CS analyzer, dorsal and lateral views) (zebrafish larvae): reduced the pigmentation area more strongly than kojic acid in a concentration-dependent manner
– | – | – | Fc1ccc2[nH]c(CS)nc2c1 [Derivative 4, (5-Fluoro-1H-benzo[d]imidazol-2-yl)methanethiol] | – | – | – | zebrafish larvae death (zebrafish larvae; [6]): all zebrafish larvae died at the tested concentrations
– | – | – | N#Cc1ccc2[nH]c(CS)nc2c1 [Derivative 5, 2-(Mercaptomethyl)-1H-benzo[d]imidazole-5-carbonitrile] | – | – | – | depigmentation of zebrafish larvae at 0.03 and 0.1 mM (zebrafish larvae; 0.03 and 0.1 mM, 48 h): did not exhibit significant depigmentation
– | – | – | FC(F)(F)c1ccc2[nH]c(CS)nc2c1 [Derivative 7, (5-(Trifluoromethyl)-1H-benzo[d]imidazol-2-yl)methanethiol] | inhibited melanin production more strongly than kojic acid; also recorded: strongest melanin inhibitory effect | significantly reduced stimulator-enhanced cellular TYR activity in a dose-dependent manner | significantly decreased the melanin levels increased by the stimulators in a concentration-dependent manner; also recorded: potently reduced the stimulator-induced increase in melanin content to the levels observed in the control group | zebrafish larvae death (zebrafish larvae; [6]): all zebrafish larvae died at the tested concentrations; in situ B16F10 cell TYR activity (cell staining) at 10 μM (B16F10 cell TYR): inhibited in situ B16F10 cell TYR activity much more potently than kojic acid; in situ B16F10 cell TYR activity (cell staining), concentration series (B16F10 cell TYR): reduced the increase in cell staining induced by α-MSH and IBMX in a concentration-dependent manner; ROS scavenging activity [3]: stronger ROS scavenging efficacy than the other derivatives
54% | 86 to 89% | mixed TYR inhibitors | Cc1cccc2[nH]c(CS)nc12 [Derivative 9, (4-Methyl-1H-benzo[d]imidazol-2-yl)methanethiol] | – | – | – | –
1% | 60% | – | Cc1cc2nc(CS)[nH]c2cc1C [Derivative 10, (5,6-Dimethyl-1H-benzo[d]imidazol-2-yl)methanethiol] | inhibited melanin production more strongly than kojic acid | significantly reduced stimulator-enhanced cellular TYR activity in a dose-dependent manner | significantly decreased the melanin levels increased by the stimulators in a concentration-dependent manner | in situ B16F10 cell TYR activity (cell staining) at 10 μM (B16F10 cell TYR): inhibited in situ B16F10 cell TYR activity much more potently than kojic acid; in situ B16F10 cell TYR activity (cell staining), concentration series (B16F10 cell TYR): reduced the increase in cell staining induced by α-MSH and IBMX in a concentration-dependent manner
